From patent US20130035232A1, “INDUCTION AND STABILIZATION OF ENZYMATIC ACTIVITY IN MICROORGANISMS” (GEORGIA STATE UNIVERSITY RESEARCH FOUNDATION, INC., priority 2010, published 2013)

Tests used:
nitrile hydratase = assay: Nitrile hydratase induction by inducers (Example 1); assay type: cell-based, Rhodococcus sp., strain DAP 96253; conditions: inducer 1000 ppm
Experimental: The induction of nitrile hydratase activity and amidase activity in Rhodococcus sp., strain DAP 96253, was evaluated using multiple types of inducers (1000 ppm). Three different samples were cultured in YEMEA medium containing 10 ppm cobalt and 7.5 g/L urea and supplemented with acrylonitrile, asparagine, or glutamine. The specific nitrile hydratase activity and the specific amidase activity in each sample was evaluated, and the results are provided below in Table 3, with activities provided in units/mg cdw (cell dry weight). One unit of nitrile hydratase activity relates to the ability to convert 1 μmol of acrylonitrile to its corresponding amide per minute, per milligram of cells (dry weight) at a pH of 7.0 and a temperature of 30° C. One unit of amidase activity relates to the ability to convert 1 μmol of acrylamide to its corresponding acid per minute, per milligram of cells (dry weight) pH of 7.0 and a temperature of 30° C.

amidase = assay: Amidase production on supplemented medium; assay type: cell-based; conditions: YEMEA, urea, cobalt, supplement 3.8 mM
Experimental: The induction of nitrile hydratase production and amidase production in various nitrile hydratase producing microorganisms was evaluated. All strains were grown on YEMEA medium containing 7.5 g/L of urea and 10 ppm cobalt (provided as cobalt chloride) supplemented with asparagine (ASN), glutamine (GLN), or both asparagine and glutamine. The asparagine and glutamine were added at a concentration of 3.8 mM. As a comparative, enzyme production with no supplementation was also tested. Growth temperature was in the range of 26° C. to 30° C.

asparaginase I = assay: 20 liter fermentation with asparagine feed: asparaginase I; assay type: cell-based, Rhodococcus sp. DAP 96253; conditions: end of 20 liter fermentation; asparagine 0.15M at 1000 μl/min from t=10 hour; FIG. 5
Experimental: Rhodococcus sp. DAP 96253 were grown using biphasic medium as the source of inoculum for a 20 liter fermentation. The supplemental addition of medium/carbohydrate (either YEMEA, dextrose or maltose) was made to the modified R2A medium, containing cottonseed hydrolysate substituted for the Proteos Peptone 3 (PP3). Asparagine (0.15M solution) was added at a continuous rate of 1000 μl/min beginning at t=10 hour. At the end of the fermentation run, 159 units per milligram cell dry weight of acrylonitrile specific nitrile hydratase, 22 units of amidase per milligram cell dry weight, and 16 g/l cell packed wet weight were produced.

Structure (SMILES): NC(=O)C[C@H](N)C(=O)O [Asparagine, asparagine]
- Nitrile Hydratase Activity (nitrile hydratase; Rhodococcus sp. DAP 96253, YEMEA, 10 ppm cobalt, 7.5 g/L urea): 170.50 Units/mg cdw
- nitrile hydratase induction compared with acrylonitrile (nitrile hydratase): exceeds the ability of acrylonitrile to induce such activity
- Amidase Level Based on Growth Medium Supplementation (amidase; Brevibacterium ketoglutaricum ATCC 21533, 30 °C): 0 Units/mg cdw
- Amidase Level Based on Growth Medium Supplementation (amidase; Pseudomonas chloroaphis ATCC 13985, 26 °C): 14 Units/mg cdw
- Amidase Level Based on Growth Medium Supplementation (amidase; Pseudomonas chloroaphis ATCC 43051, 30 °C): 0 Units/mg cdw
- Amidase Level Based on Growth Medium Supplementation (amidase; Rhodococcus erythropolis ATCC 47072, 26 °C): 9 Units/mg cdw
- Amidase Level Based on Growth Medium Supplementation (amidase; Rhodococcus rhodochrous DAP 96622 ATCC 55898, 26 °C): 10 Units/mg cdw
- Amidase Level Based on Growth Medium Supplementation (amidase; Rhodococcus sp. DAP 96253 ATCC 55899, 30 °C): 13 Units/mg cdw
- asparaginase I produced (asparaginase I): 16 units per milligram cell dry weight
